Assay results as given in PubChem BioAssay (NCI).
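48-hour exposure; five concentrations; linearly interpolated endpoints. TGI: total growth inhibition.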

Experiments:
Test in all cases: NCI tumour cell line growth inhibition, 48 h
[1] = test system: SK-MEL-28 melanoma
[2] = test system: A549 NSCLC
[3] = test system: SNB-19 CNS
[4] = test system: DMS 273 small cell lung
[5] = test system: M14 melanoma
[6] = test system: LXFL 529 NSCLC
[7] = test system: UACC-257 melanoma
[8] = test system: 786-0 renal
[9] = test system: XF 498 CNS
[10] = test system: SK-OV-3 ovarian
[11] = test system: TK-10 renal
[12] = test system: RPMI-8226 leukemia
[13] = test system: OVCAR-4 ovarian
[14] = test system: KM20L2 colon
[15] = test system: NCI-H522 lung
[16] = test system: SN12C renal
[17] = test system: CAKI-1 renal
[18] = test system: DMS 114 small cell lung
[19] = test system: SW-620 colon
[20] = test system: HCT-15 colon
[21] = test system: K-562 leukemia
[22] = test system: OVCAR-8 ovarian
[23] = test system: SNB-75 CNS
[24] = test system: MALME-3M melanoma
[25] = test system: COLO 205 colon
[26] = test system: LOX IMVI melanoma
[27] = test system: A498 renal
[28] = test system: U251 CNS
[29] = test system: EKVX NSCLC
[30] = test system: HOP-92 NSCLC
[31] = test system: HT29 colon
[32] = test system: HOP-62 NSCLC
[33] = test system: IGROV1 ovarian
[34] = test system: MOLT-4 leukemia
[35] = test system: SF-268 CNS
[36] = test system: SF-539 CNS
[37] = test system: RXF-631 renal
[38] = test system: OVCAR-3 ovarian
[39] = test system: RXF 393 renal
[40] = test system: SR leukemia
[41] = test system: NCI-H460 lung
[42] = test system: UO-31 renal
[43] = test system: CCRF-CEM leukemia
[44] = test system: ACHN renal
[45] = test system: SK-MEL-2 melanoma
[46] = test system: NCI-H226 lung
[47] = test system: OVCAR-5 ovarian
[48] = test system: M19-MEL melanoma
[49] = test system: HCC-2998 colon
[50] = test system: DLD-1 colon
[51] = test system: HOP-18 NSCLC
[52] = test system: NCI-H23 lung
[53] = test system: SK-MEL-5 melanoma
[54] = test system: SF-295 CNS
[55] = test system: UACC-62 melanoma
[56] = test system: HL-60(TB) leukemia
[57] = test system: HCT-116 colon
[58] = test system: KM12 colon
[59] = test system: SNB-78 CNS
[60] = test system: SN12K1 renal
[61] = test system: MCF7 breast
[62] = test system: P388/ADR leukemia
[63] = test system: NCI/ADR-RES ovarian
[64] = test system: P388 leukemia

CC(C)CC1CC2C(=O)N(c3ccccc3)C(=O)C2c2[nH]c3ccccc3c21 (stereo not given)
TGI [1]: > 55.7 µM
TGI [2]: > 53.8 µM
TGI [3]: > 100 µM
TGI [4]: > 100 µM
TGI [5]: > 100 µM
TGI [6]: > 100 µM
TGI [7]: > 100 µM
TGI [8]: > 100 µM
TGI [9]: 48.6 µM
TGI [10]: 43.6 µM
TGI [11]: > 40.1 µM
TGI [12]: > 100 µM
TGI [13]: > 38.5 µM
TGI [14]: > 100 µM
TGI [15]: > 100 µM
TGI [16]: > 43.8 µM
TGI [17]: 72.7 µM
TGI [18]: 52.7 µM
TGI [19]: > 100 µM
TGI [20]: > 31.6 µM
TGI [21]: > 42.7 µM
TGI [22]: 51.6 µM
TGI [23]: 30.6 µM
TGI [24]: 37 µM
TGI [25]: > 100 µM
TGI [26]: > 87.8 µM
TGI [27]: > 51.3 µM
TGI [28]: > 65 µM
TGI [29]: > 100 µM
TGI [30]: 41.8 µM
TGI [31]: > 100 µM
TGI [32]: 47.8 µM
TGI [33]: 61.9 µM
TGI [34]: > 58.7 µM
TGI [35]: > 100 µM
TGI [36]: 99.4 µM
TGI [37]: 51.8 µM
TGI [38]: 42.7 µM
TGI [39]: 44.9 µM
TGI [40]: 76.4 µM
TGI [41]: > 100 µM
TGI [42]: 79.9 µM
TGI [43]: > 56.6 µM
TGI [44]: > 87.7 µM
TGI [45]: 59.8 µM
TGI [46]: 66.1 µM
TGI [47]: > 100 µM
TGI [48]: > 100 µM
TGI [49]: > 31.6 µM
TGI [50]: > 100 µM
TGI [51]: 31.4 µM
TGI [52]: > 80.8 µM
TGI [53]: > 100 µM
TGI [54]: > 94.4 µM
TGI [55]: > 31.6 µM
TGI [56]: > 31.6 µM
TGI [57]: 34 µM
TGI [58]: > 100 µM
TGI [59]: > 100 µM

CC1=CC2=C(C=O)C(=O)[C@](C)(O)[C@@H](O)C2=CO1
TGI [1]: > 78.1 µM
TGI [2]: > 90.8 µM
TGI [60]: > 100 µM
TGI [3]: 5.5 µM
TGI [4]: > 90.2 µM
TGI [61]: > 100 µM
TGI [7]: > 100 µM
TGI [9]: > 100 µM
TGI [10]: 76.3 µM
TGI [12]: 47.1 µM
TGI [13]: > 100 µM
TGI [15]: 38.5 µM
TGI [62]: 33.8 µM
TGI [16]: > 100 µM
TGI [17]: > 100 µM
TGI [19]: > 77.6 µM
TGI [20]: > 100 µM
TGI [21]: > 90.9 µM
TGI [22]: > 100 µM
TGI [23]: > 100 µM
TGI [24]: > 70.2 µM
TGI [25]: > 82 µM
TGI [63]: > 100 µM
TGI [26]: > 74.3 µM
TGI [27]: 73.5 µM
TGI [28]: > 76.8 µM
TGI [29]: > 100 µM
TGI [30]: > 100 µM
TGI [31]: > 100 µM
TGI [32]: 69 µM
TGI [33]: > 100 µM
TGI [34]: 41.3 µM
TGI [35]: > 69.4 µM
TGI [64]: 35.5 µM
TGI [36]: 97.5 µM
TGI [38]: 5.58 µM
TGI [39]: 52.3 µM
TGI [41]: > 100 µM
TGI [42]: 43.8 µM
TGI [43]: 59.3 µM
TGI [45]: 62.2 µM
TGI [46]: 65.4 µM
TGI [47]: > 100 µM
TGI [48]: > 73.5 µM
TGI [49]: > 61.5 µM
TGI [50]: > 100 µM
TGI [51]: > 92.7 µM
TGI [52]: > 100 µM
TGI [53]: 68.1 µM
TGI [54]: > 100 µM
TGI [55]: 71.5 µM
TGI [57]: > 59.9 µM
TGI [58]: > 100 µM
TGI [59]: > 100 µM

O=C(CC(=O)n1nc(-c2ccccc2)c(N=Nc2ccc([N+](=O)[O-])cc2)c1-c1ccccc1)Nc1ccc(Cl)cc1
TGI [1]: 80.8 µM
TGI [2]: 56.3 µM
TGI [3]: 81.6 µM
TGI [4]: > 100 µM
TGI [5]: > 100 µM
TGI [6]: > 100 µM
TGI [7]: > 100 µM
TGI [8]: > 100 µM
TGI [9]: 59.1 µM
TGI [10]: 42.3 µM
TGI [11]: 69.1 µM
TGI [12]: > 100 µM
TGI [13]: > 100 µM
TGI [14]: 24.9 µM
TGI [15]: > 100 µM
TGI [16]: > 100 µM
TGI [17]: 99.3 µM
TGI [18]: 48.8 µM
TGI [19]: > 100 µM
TGI [21]: 17.8 µM
TGI [22]: > 100 µM
TGI [23]: > 100 µM
TGI [24]: > 100 µM
TGI [25]: 34.9 µM
TGI [26]: > 100 µM
TGI [28]: 63.1 µM
TGI [29]: > 100 µM
TGI [30]: 52.3 µM
TGI [31]: 58.5 µM
TGI [32]: 42.7 µM
TGI [33]: > 100 µM
TGI [34]: > 100 µM
TGI [35]: > 100 µM
TGI [36]: 75.8 µM
TGI [37]: > 100 µM
TGI [38]: 66.1 µM
TGI [39]: 51.3 µM
TGI [40]: > 100 µM
TGI [41]: > 100 µM
TGI [42]: 45.1 µM
TGI [43]: 97 µM
TGI [44]: 19.2 µM
TGI [45]: > 100 µM
TGI [46]: 70 µM
TGI [47]: > 100 µM
TGI [48]: > 100 µM
TGI [49]: 91.4 µM
TGI [50]: > 100 µM
TGI [51]: > 100 µM
TGI [52]: > 100 µM
TGI [53]: 22.3 µM
TGI [54]: > 100 µM
TGI [55]: > 100 µM
TGI [56]: 70.4 µM
TGI [57]: > 100 µM
TGI [58]: > 100 µM
TGI [59]: > 100 µM
